From PubChem BioAssay (NCI)
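Briefly, cells in 96-well plates were exposed to five compound concentrations for 48 h, and endpoints were estimated by linear interpolation. The concentration for 50% growth inhibition is given as GI50. TGI: total growth inhibition.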

Tests used:
Test in all cases: growth of human tumour cells (NCI), 48 h
NCI/ADR-RES ovarian = system: NCI/ADR-RES ovarian
U251 CNS = system: U251 CNS
TK-10 renal = system: TK-10 renal
NCI-H460 lung = system: NCI-H460 lung
SN12C renal = system: SN12C renal
SK-OV-3 ovarian = system: SK-OV-3 ovarian
RPMI-8226 leukemia = system: RPMI-8226 leukemia
UACC-62 melanoma = system: UACC-62 melanoma
HL-60(TB) leukemia = system: HL-60(TB) leukemia
ACHN renal = system: ACHN renal
MALME-3M melanoma = system: MALME-3M melanoma
LOX IMVI melanoma = system: LOX IMVI melanoma
IGROV1 ovarian = system: IGROV1 ovarian
PC-3 prostate = system: PC-3 prostate
KM12 colon = system: KM12 colon
UACC-257 melanoma = system: UACC-257 melanoma
A549 NSCLC = system: A549 NSCLC
SK-MEL-28 melanoma = system: SK-MEL-28 melanoma
SK-MEL-5 melanoma = system: SK-MEL-5 melanoma
UO-31 renal = system: UO-31 renal
MDA-MB-231 breast = system: MDA-MB-231 breast
A498 renal = system: A498 renal
CAKI-1 renal = system: CAKI-1 renal
DU-145 prostate = system: DU-145 prostate
HOP-92 NSCLC = system: HOP-92 NSCLC
NCI-H226 lung = system: NCI-H226 lung
NCI-H23 lung = system: NCI-H23 lung
M14 melanoma = system: M14 melanoma
786-0 renal = system: 786-0 renal
COLO 205 colon = system: COLO 205 colon
HCC-2998 colon = system: HCC-2998 colon
RXF 393 renal = system: RXF 393 renal
SF-268 CNS = system: SF-268 CNS
OVCAR-4 ovarian = system: OVCAR-4 ovarian
HS 578T breast = system: HS 578T breast
SF-295 CNS = system: SF-295 CNS
MCF7 breast = system: MCF7 breast
HOP-62 NSCLC = system: HOP-62 NSCLC
T-47D breast = system: T-47D breast
OVCAR-8 ovarian = system: OVCAR-8 ovarian
OVCAR-3 ovarian = system: OVCAR-3 ovarian
HCT-116 colon = system: HCT-116 colon
SNB-75 CNS = system: SNB-75 CNS
HT29 colon = system: HT29 colon
EKVX NSCLC = system: EKVX NSCLC
SF-539 CNS = system: SF-539 CNS
SNB-19 CNS = system: SNB-19 CNS
NCI-H522 lung = system: NCI-H522 lung
SK-MEL-2 melanoma = system: SK-MEL-2 melanoma
OVCAR-5 ovarian = system: OVCAR-5 ovarian
K-562 leukemia = system: K-562 leukemia
SW-620 colon = system: SW-620 colon
SR leukemia = system: SR leukemia
CCRF-CEM leukemia = system: CCRF-CEM leukemia
HCT-15 colon = system: HCT-15 colon
MDA-MB-435 = system: MDA-MB-435
BT-549 breast = system: BT-549 breast

Structure (SMILES): CCOC(=O)c1ccc2c(c1)[n+](=O)c(C(=O)c1ccc3ccccc3c1)c(C(F)(F)F)n2[O-]
- GI50 (NCI/ADR-RES ovarian): 1610 nM
- TGI (NCI/ADR-RES ovarian): 3310 nM
- GI50 (U251 CNS): 1500 nM
- TGI (U251 CNS): 2830 nM
- GI50 (TK-10 renal): 1890 nM
- TGI (TK-10 renal): 3300 nM
- GI50 (NCI-H460 lung): 1690 nM
- TGI (NCI-H460 lung): 3200 nM
- GI50 (SN12C renal): 1630 nM
- TGI (SN12C renal): 3580 nM
- GI50 (SK-OV-3 ovarian): 1640 nM
- TGI (SK-OV-3 ovarian): 2990 nM
- GI50 (RPMI-8226 leukemia): 1100 nM
- TGI (RPMI-8226 leukemia): 3630 nM
- GI50 (UACC-62 melanoma): 1520 nM
- TGI (UACC-62 melanoma): 2930 nM
- GI50 (HL-60(TB) leukemia): 980 nM
- TGI (HL-60(TB) leukemia): 2820 nM
- GI50 (ACHN renal): 1470 nM
- TGI (ACHN renal): 2930 nM
- GI50 (MALME-3M melanoma): 1680 nM
- TGI (MALME-3M melanoma): 3460 nM
- GI50 (LOX IMVI melanoma): 175 nM
- TGI (LOX IMVI melanoma): 329 nM
- GI50 (IGROV1 ovarian): 361 nM
- TGI (IGROV1 ovarian): 1210 nM
- GI50 (PC-3 prostate): 729 nM
- TGI (PC-3 prostate): 2000 nM
- GI50 (KM12 colon): 1250 nM
- TGI (KM12 colon): 2510 nM
- GI50 (UACC-257 melanoma): 1790 nM
- TGI (UACC-257 melanoma): 3240 nM
- GI50 (A549 NSCLC): 1890 nM
- TGI (A549 NSCLC): 3620 nM
- GI50 (SK-MEL-28 melanoma): 1660 nM
- TGI (SK-MEL-28 melanoma): 3020 nM
- GI50 (SK-MEL-5 melanoma): 1450 nM
- TGI (SK-MEL-5 melanoma): 2780 nM
- GI50 (UO-31 renal): 1300 nM
- TGI (UO-31 renal): 2570 nM
- GI50 (MDA-MB-231 breast): 1580 nM
- TGI (MDA-MB-231 breast): 3150 nM
- GI50 (A498 renal): 1660 nM
- TGI (A498 renal): 3090 nM
- GI50 (CAKI-1 renal): 1420 nM
- TGI (CAKI-1 renal): 2850 nM
- GI50 (DU-145 prostate): 1780 nM
- TGI (DU-145 prostate): 3160 nM
- GI50 (HOP-92 NSCLC): 1200 nM
- TGI (HOP-92 NSCLC): 2520 nM
- GI50 (NCI-H226 lung): 1740 nM
- TGI (NCI-H226 lung): 3570 nM
- GI50 (NCI-H23 lung): 496 nM
- TGI (NCI-H23 lung): 1790 nM
- GI50 (M14 melanoma): 1440 nM
- TGI (M14 melanoma): 2740 nM
- GI50 (786-0 renal): 1610 nM
- TGI (786-0 renal): 2990 nM
- GI50 (COLO 205 colon): 1520 nM
- TGI (COLO 205 colon): 2870 nM
- GI50 (HCC-2998 colon): 1650 nM
- TGI (HCC-2998 colon): 3030 nM
- GI50 (RXF 393 renal): 1730 nM
- TGI (RXF 393 renal): 3260 nM
- GI50 (SF-268 CNS): 1150 nM
- TGI (SF-268 CNS): 2360 nM
- GI50 (OVCAR-4 ovarian): 261 nM
- TGI (OVCAR-4 ovarian): 848 nM
- GI50 (HS 578T breast): 1570 nM
- TGI (HS 578T breast): 3620 nM
- GI50 (SF-295 CNS): 1780 nM
- TGI (SF-295 CNS): 3170 nM
- GI50 (MCF7 breast): 901 nM
- TGI (MCF7 breast): 2420 nM
- GI50 (HOP-62 NSCLC): 1660 nM
- TGI (HOP-62 NSCLC): 3080 nM
- GI50 (T-47D breast): 860 nM
- TGI (T-47D breast): 2320 nM
- GI50 (OVCAR-8 ovarian): 1280 nM
- TGI (OVCAR-8 ovarian): 2700 nM
- GI50 (OVCAR-3 ovarian): 749 nM
- TGI (OVCAR-3 ovarian): 2030 nM
- GI50 (HCT-116 colon): 373 nM
- TGI (HCT-116 colon): 1460 nM
- GI50 (SNB-75 CNS): 1130 nM
- TGI (SNB-75 CNS): 2340 nM
- GI50 (HT29 colon): 1080 nM
- TGI (HT29 colon): 2270 nM
- GI50 (EKVX NSCLC): 1560 nM
- TGI (EKVX NSCLC): 3140 nM
- GI50 (SF-539 CNS): 1560 nM
- TGI (SF-539 CNS): 2900 nM
- GI50 (SNB-19 CNS): 1700 nM
- TGI (SNB-19 CNS): 3070 nM
- GI50 (NCI-H522 lung): 458 nM
- TGI (NCI-H522 lung): 1870 nM
- GI50 (SK-MEL-2 melanoma): 1820 nM
- TGI (SK-MEL-2 melanoma): 3400 nM
- GI50 (OVCAR-5 ovarian): 1300 nM
- TGI (OVCAR-5 ovarian): 2570 nM
- GI50 (K-562 leukemia): 312 nM
- TGI (K-562 leukemia): 1510 nM
- GI50 (SW-620 colon): 1520 nM
- TGI (SW-620 colon): 2920 nM
- GI50 (SR leukemia): 331 nM
- TGI (SR leukemia): 1600 nM
- GI50 (CCRF-CEM leukemia): 400 nM
- TGI (CCRF-CEM leukemia): 2290 nM
- GI50 (HCT-15 colon): 1490 nM
- TGI (HCT-15 colon): 3300 nM
- GI50 (MDA-MB-435): 1530 nM
- TGI (MDA-MB-435): 2950 nM
- GI50 (BT-549 breast): 1530 nM
- TGI (BT-549 breast): 3280 nM
